Data published in US6602676B1, “Testing method” (Milk Development Council, priority 1999, dated 2003).

System: cows with luteal P4 insufficiency
Experiment: Study II: pregnancy rate after P4 supplementation with CIDR on Day 5 post AI in cows with luteal P4 insufficiency
Assay type: in vivo, Holstein-Friesian cows
Conditions: mean milk P4 on Day 5 post AI 1 to 1.99 ng/ml; CIDR inserted Day 5 post AI for seven days
Experimental: Milk samples for P4 assay and reproductive data were collected from British Friesian and Holstein-Friesian cows in seven commercial herds. The cows were housed in a free-stall system and fed rations to meet their production and maintenance requirements. Data on calving date, parity, AI date and pregnancy were recorded. For the preliminary study, milk samples were collected daily for P4 determination from Day 7 postpartum until 100 days of the next gestation. The sampling protocol for animals in Studies I and II was limited to three milk samples per animal on Days 0, 5 and 24 post AI. […]
Milk P4 concentrations in an un-extracted aliquot of whole milk were measured using either radio immunoassay (RIA) as described by Lamming and Bulman (Lamming, G. E. and D. C. Bulman (1976) Br. Vet. J. 132: 507-517) and Bulman and Lamming (Bulman D. C. and G. E. Lamming (1978) J. Reprod. Fertil. 54: 447-458) or enzyme linked immunosorbent assay (ELISA) kit (Ridgeway Science Ltd., Gloucestershire, UK) as illustrated by Darwash et al. (Darwash A. O et al (1999b) Anim Sci. (in press)). All samples and quality controls (QC) were assayed in duplicate and the mean value of both readings were used to indicate milk P4 concentrations. […]
Following determination of pregnancy, the accuracy of using milk P4 concentrations on Day 24 post AI to predict pregnancy rates was calculated. […]

In the case of `CC(=O)[C@H]1CC[C@H]2[C@@H]3CCC4=CC(=O)CC[C@]4(C)[C@H]3CC[C@]12C` [P4, progesterone], the “Pregnancy (%), treated” value is reported as 57.9%.
